Legend:
[1] = target: SNAP-hSPR (sepiapterin reductase, SPR) (Homo sapiens, UniProt P35270); assay: biochemical; type: binding; conditions: terbium labelled SNAP-hSPR / SSZ labelled SNAP-EGFP; read-out: hTR-FRET IC50
Description: TR-FRET Assay: A TR-FRET (homogeneous, time-resolved, fluorescence resonance energy transfer) assay was used to assess activity of compounds following standard assay conditions. […] Compounds were screened at different concentrations and IC50 values calculated.
Terbium labelled SNAP-hSPR and SSZ (sulfasalazine) labelled SNAP-EGFP were used as the protein pair in this assay. Compounds were screened at different concentrations, and 1050 and Kd values calculated.

[2] = test system: BH4 levels in SK-N-BE (2) cells; assay: SKN-N-BE (2) cellular assay, BH4 levels by LC-MS; type: cell-based; conditions: Homo sapiens, SKNBE2, read-out: SK-N-BE(2) IC50, SK-N-BE (2) cells, BH4 levels by LC-MS
[3] = test system: BH4 production in human peripheral blood mononuclear cells (PBMCs); assay: hPBMC assay, inhibition of BH4 production by LC-MS (anti-CD3/anti-CD28 stimulated); type: cell-based; conditions: PBMC, read-out: hPBMC IC50

SNAP-hSPR (sepiapterin reductase, SPR), sequence (P35270 whole entry): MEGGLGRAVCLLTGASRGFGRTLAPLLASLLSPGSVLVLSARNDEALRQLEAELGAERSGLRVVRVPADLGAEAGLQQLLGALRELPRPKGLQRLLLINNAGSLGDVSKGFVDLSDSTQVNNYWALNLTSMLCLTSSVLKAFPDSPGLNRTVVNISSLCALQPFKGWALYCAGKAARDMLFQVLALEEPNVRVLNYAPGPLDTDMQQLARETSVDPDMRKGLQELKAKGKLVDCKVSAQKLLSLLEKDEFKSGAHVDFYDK

Compound	IC50 [1] [µM]	IC50 [2] [µM]	IC50 [3] [µM]
CCC1(C#N)CCN(C(=O)c2nnn(-c3nn4cccc4c(=O)[nH]3)c2C)CC1 [Q-0777]	0.001	0.3	0.055
Cc1c(C(=O)N2CCC(C#N)(c3ccccn3)CC2)cnn1-c1nn2cccc2c(=O)[nH]1 [Q-0952]	0.001	0.3	0.083
CCC1(C#N)CC12CCN(C(=O)c1cnn(-c3nn4cccc4c(=O)[nH]3)c1C)CC2 (stereo not drawn) [Q-1053]	0.001	0.2	0.23
Cc1c(C(=O)N2CCN3CCC[C@@H]3C2)cnn1-c1nn2cccc2c(=O)[nH]1 [Q-0693]	0.003	0.8	0.45
Cc1c(C(=O)N2CCC(F)(C#N)C2)cnn1-c1nn2cccc2c(=O)[nH]1 (stereo not drawn) [Q-1059]	0.002	1.3	2.1
Cc1c(C(=O)N2CC(N3CCC(F)(F)C3)C2)cnn1-c1nn2cccc2c(=O)[nH]1 [Q-0812]	0.003	1	0.15
Cc1c(C(=O)N2CCC3OCCCC3C2)cnn1-c1nn2cccc2c(=O)[nH]1 (stereo not drawn) [Q-0917]	0.003	0.7	0.1
Cc1c(C(=O)N2CC(F)(c3ccccc3)C2)cnn1-c1nn2cccc2c(=O)[nH]1 [Q-1038]	0.002	0.3	0.34
Cc1c(C(=O)N2CC(N(C)C(=O)OC(C)(C)C)C2)cnn1-c1nn2cccc2c(=O)[nH]1 [Q-0850]	0.001	0.3	0.074
Cc1c(C(=O)N2CCC(S(=O)(=O)C(C)C)CC2)cnn1-c1nn2cccc2c(=O)[nH]1 [Q-0977]	0.001	0.5	0.086
Cc1c(C(=O)N2CCC(N3CCC(F)(F)CC3)CC2)cnn1-c1nn2cccc2c(=O)[nH]1 [Q-0995]	0.002	0.6	0.18
Cc1c(C(=O)N2CCC(C(C#N)CCF)CC2)cnn1-c1nn2cccc2c(=O)[nH]1 (stereo not drawn) [Q-1062]	0.001	0.1	0.097
Cc1c(C(=O)N2CC3CC(F)(F)C3C2)cnn1-c1nn2cccc2c(=O)[nH]1 (stereo not drawn) [Q-0804]	0.001	0.3	0.094
Cc1c(C(=O)N2CCC3(CC2)CN(C(=O)OC(C)(C)C)C3)cnn1-c1nc2c(c(=O)[nH]1)CCC2 [Q-0924]	0.002	0.2	0.051
Cc1c(C(=O)N2CCC(C(C#N)CCF)CC2)cnn1-c1nc2c(c(=O)[nH]1)CCC2 (stereo not drawn) [Q-1063]	0.002	0.055	0.12
Cc1c(C(=O)N2CCC(C3(C(F)(F)F)CC3)CC2)cnn1-c1nn2cccc2c(=O)[nH]1 [Q-0944]	0.001	0.028	0.036
Cc1c(C(=O)N2CCN(C(C)C(F)(F)F)CC2)cnn1-c1nc2c(c(=O)[nH]1)CCC2 (stereo not drawn) [Q-1054]	0.001	0.028	0.06
Cc1c(C(=O)N2CCN(C(=O)OC(C)(C)C)C(C)C2)cnn1-c1nn2cccc2c(=O)[nH]1 (stereo not drawn) [Q-0887]	0.001	0.2	0.057
Cc1c(C(=O)N2CC3(C2)CC(F)(F)C3)nnn1-c1nn2cccc2c(=O)[nH]1 [Q-1024]	0.001	0.3	0.056
Cc1c(C(=O)N2CCN(C(=O)OC(C)(C)C)CC2)cnn1-c1nn2cccc2c(=O)[nH]1 [Q-0750]	0.003	0.5	0.18
Cc1c(C(=O)N2CCN(c3ccc(C(F)(F)F)cn3)CC2)cnn1-c1nn2cccc2c(=O)[nH]1 [Q-0836]	0.005	0.3	0.052
Cc1c(C(=O)N2CCN3CC(F)(F)C[C@H]3C2)cnn1-c1nn2cccc2c(=O)[nH]1 [Q-0906]	0.003	0.8	0.19
Cc1c(C(=O)N2CCC(C3(C#N)CC3)CC2)cnn1-c1nn2cccc2c(=O)[nH]1 [Q-0817]	0.001	0.2	0.044
Cc1c(C(=O)N2CCC(C(F)(F)F)CC2)cnn1-c1nc2[nH]ccc2c(=O)[nH]1 [Q-0427]	0.009	3.1	1.1
Cc1c(C(=O)N2CCN(C(=O)OC(C)(C)C)C[C@@H]2C)cnn1-c1nn2cccc2c(=O)[nH]1 [Q-0915]	0.002	0.5	0.092
CCC(C#N)C1(F)CCN(C(=O)c2cnn(-c3nn4cccc4c(=O)[nH]3)c2C)CC1 (stereo not drawn) [Q-1047]	0.001	0.2	0.066
Cc1c(C(=O)N2CC[C@H](N(C)C(=O)OC(C)(C)C)C2)cnn1-c1nn2cccc2c(=O)[nH]1 [Q-0851]	0.002	0.5	0.13
Cc1c(C(=O)N2CC3(CSC3)C2)cnn1-c1nn2cccc2c(=O)[nH]1 [Q-0822]	0.002	0.4	0.13

Compound	IC50 [1] [µM]	IC50 [2] [µM]	IC50 [3] [µM]
Cc1cc(=O)[nH]c(-n2ncc(C(=O)N3CCc4ccccc4C3)c2C)n1 [Q-0279, 6-methyl-2-[5-methyl-4-(1,2,3,4-tetrahydroisoquinoline-2-carbonyl)-1H-pyrazol-1-yl]-3,4-dihydropyrimidin-4-one]	0.007	1	2.2
Cc1c(C(=O)N2CC3(CCCC3)C2)cnn1-c1nn2cccc2c(=O)[nH]1 [Q-0813]	0.001	0.1	0.065
CCC(O)(C1CCN(C(=O)c2cnn(-c3nn4cccc4c(=O)[nH]3)c2C)CC1)C(F)(F)F (stereo not drawn) [Q-1052]	0.001	0.044	0.083
Cc1c(C(=O)N2CC3CCC(C2)C3(O)C(F)(F)F)cnn1-c1nn2cccc2c(=O)[nH]1 (stereo not drawn) [Q-0837]	0.001	0.2	0.063
Cc1c(C(=O)N2C3CCC2CC(F)(F)C3)cnn1-c1nn2cccc2c(=O)[nH]1 [Q-0910]	0.002	0.5	0.074
Cc1c(C(=O)N2CC=C(C3(C#N)CC3)CC2)cnn1-c1nn2cccc2c(=O)[nH]1 [Q-1034]	0.002	0.2	0.16
Cc1c(C(=O)N2CC[C@@H](N(C)C(=O)OC(C)(C)C)C2)cnn1-c1nc2c(c(=O)[nH]1)CCC2 [Q-0571]	0.003	0.073	0.067
Cc1c(C(=O)N2CCC(C3(C#N)CC3)CC2)cnn1-c1nc2c(c(=O)[nH]1)CCC2 [Q-0948]	0.001	0.1	0.053
Cc1c(C(=O)N2CCC(c3nccs3)CC2)cnn1-c1nn2cccc2c(=O)[nH]1 [Q-0969]	0.001	0.2	0.16
Cc1c(C(=O)N2CCC(C3CC3)CC2)cnn1-c1nc2c(c(=O)[nH]1)CCC2 [Q-0451]	0.002	0.019	0.013
Cc1c(C(=O)N2CCN(CC(F)(F)F)C(C)C2)cnn1-c1nn2cccc2c(=O)[nH]1 (stereo not drawn) [Q-0908]	0.001	0.3	0.13
Cc1c(C(=O)N2CCC(n3cccc3)CC2)cnn1-c1nn2cccc2c(=O)[nH]1 [Q-0941]	0.001	0.3	0.013
Cc1c(C(=O)N2CCc3ccccc3C2)cnn1-c1nc2ccsc2c(=O)[nH]1 [Q-0354]	0.002	0.1	0.38
Cc1c(C(=O)N2CCC3(CC3)C2)cnn1-c1nn2cccc2c(=O)[nH]1 [Q-0921]	0.002	0.4	0.047
Cc1c(C(=O)N2CCC(OCC(F)(F)F)CC2)cnn1-c1nn2cccc2c(=O)[nH]1 [Q-0784]	0.001	0.3	0.12
Cc1c(C(=O)N2CCC(C(O)(C(F)(F)F)C(F)(F)F)CC2)cnn1-c1nn2cccc2c(=O)[nH]1 [Q-0721]	0.001	0.035	0.026
Cc1c(C(=O)N2CC3(CN(CC(F)(F)F)C3)C2)cnn1-c1nn2cccc2c(=O)[nH]1 [Q-0891]	0.004	0.9	0.24
Cc1c(C(=O)N2CCC(c3nc(-c4ccccc4)cs3)CC2)cnn1-c1nc2c(c(=O)[nH]1)CCC2 [Q-1056]	0.003	0.016	0.055
Cc1c(C(=O)N2CC3(CCN(C(=O)OC(C)(C)C)CC3)C2)cnn1-c1nn2cccc2c(=O)[nH]1 [Q-0772]	0.001	0.2	0.072
Cc1c(C(=O)N2CCC(C)(C#N)CC2)cnn1-c1nn2cccc2c(=O)[nH]1 [Q-0800]	0.002	0.6	0.047
Cc1c(C(=O)N2CCN(C(=O)OC(C)(C)C)C[C@H]2C)cnn1-c1nn2cccc2c(=O)[nH]1 [Q-0892]	0.002	0.4	0.076
Cc1c(C(=O)N2CC(N3CCCC(F)(F)C3)C2)cnn1-c1nn2cccc2c(=O)[nH]1 [Q-0993]	0.003	1.1	0.16
Cc1c(C(=O)N2CC3C(C2)C3(C)C)cnn1-c1nc2c(c(=O)[nH]1)CCC2 (stereo not drawn) [Q-1048]	0.001	0.2	0.05
Cc1c(C(=O)N2CCN(C3CC3)CC2)cnn1-c1nn2cccc2c(=O)[nH]1 [Q-0764]	0.002	0.3	0.1
Cc1c(C(=O)N2CCC(CC#N)CC2)cnn1-c1nn2cccc2c(=O)[nH]1 [Q-0825]	0.002	0.4	0.15
Cc1c(C(=O)N2CCC3(CC2)CC3C(=O)N2CCCC2)cnn1-c1nn2cccc2c(=O)[nH]1 (stereo not drawn) [Q-0911]	0.002	0.4	0.11
Cc1c(C(=O)N2CCN(CC3CCC3)[C@H](C)C2)cnn1-c1nn2cccc2c(=O)[nH]1 [Q-1020]	0.002	0.3	0.2
